Test results from ChEMBL document CHEMBL5543060, “Technologies of targeting histone deacetylase in drug discovery: Current progress and emerging prospects” (Eur J Med Chem, 2023).

Tests used:
[1] = target: T1, Protein deacetylase HDAC6 (Homo sapiens, UniProt Q9UBN7); assay: Inhibition of HDAC6 (unknown origin)
T1 sequence (Q9UBN7 whole entry): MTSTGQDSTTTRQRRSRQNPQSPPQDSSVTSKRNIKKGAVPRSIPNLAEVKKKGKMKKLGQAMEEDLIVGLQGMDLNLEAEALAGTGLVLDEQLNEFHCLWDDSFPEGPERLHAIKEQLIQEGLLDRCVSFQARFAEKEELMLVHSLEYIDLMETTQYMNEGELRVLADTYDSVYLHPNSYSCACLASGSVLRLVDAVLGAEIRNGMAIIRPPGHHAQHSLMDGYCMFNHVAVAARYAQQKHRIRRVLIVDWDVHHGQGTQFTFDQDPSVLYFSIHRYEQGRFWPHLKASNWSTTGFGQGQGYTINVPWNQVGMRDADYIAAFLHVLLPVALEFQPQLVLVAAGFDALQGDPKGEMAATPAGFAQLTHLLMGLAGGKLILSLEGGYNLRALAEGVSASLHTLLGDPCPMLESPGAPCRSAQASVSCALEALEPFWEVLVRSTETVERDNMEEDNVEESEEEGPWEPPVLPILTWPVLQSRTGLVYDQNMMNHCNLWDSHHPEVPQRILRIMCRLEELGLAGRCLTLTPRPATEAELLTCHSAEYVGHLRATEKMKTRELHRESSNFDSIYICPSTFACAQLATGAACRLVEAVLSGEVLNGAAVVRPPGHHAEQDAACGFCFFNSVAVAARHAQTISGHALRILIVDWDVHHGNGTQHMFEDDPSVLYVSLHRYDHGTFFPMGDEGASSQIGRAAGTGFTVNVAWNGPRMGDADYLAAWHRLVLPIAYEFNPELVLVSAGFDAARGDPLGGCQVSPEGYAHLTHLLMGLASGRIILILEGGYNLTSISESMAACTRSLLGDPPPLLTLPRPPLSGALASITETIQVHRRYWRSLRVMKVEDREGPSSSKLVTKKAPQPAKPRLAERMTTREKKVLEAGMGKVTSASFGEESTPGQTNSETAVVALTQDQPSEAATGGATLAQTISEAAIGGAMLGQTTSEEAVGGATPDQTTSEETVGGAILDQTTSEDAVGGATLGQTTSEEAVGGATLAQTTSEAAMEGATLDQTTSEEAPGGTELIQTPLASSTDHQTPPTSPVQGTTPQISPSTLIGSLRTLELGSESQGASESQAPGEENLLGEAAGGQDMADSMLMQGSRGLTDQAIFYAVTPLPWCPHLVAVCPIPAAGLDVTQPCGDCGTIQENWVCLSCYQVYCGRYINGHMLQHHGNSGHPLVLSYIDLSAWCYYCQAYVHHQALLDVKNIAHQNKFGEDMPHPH

[2] = target: von Hippel-Lindau disease tumor suppressor/Histone deacetylase 1 (Homo sapiens, UniProt Q13547+P40337); assay: PROTAC activity at VHL/HDAC1 in human ES1 cells assessed as HDAC1 degradation by fluorescence based assay; assay type: cell-based
Histone deacetylase 8 [3] = target: T2, Histone deacetylase 8 (Homo sapiens, UniProt Q9BY41); assay: Inhibition of HDAC8 (unknown origin) using Fluoro-Substrate Peptide as substrate by fluorescence based assay
T2 sequence (Q9BY41 whole entry): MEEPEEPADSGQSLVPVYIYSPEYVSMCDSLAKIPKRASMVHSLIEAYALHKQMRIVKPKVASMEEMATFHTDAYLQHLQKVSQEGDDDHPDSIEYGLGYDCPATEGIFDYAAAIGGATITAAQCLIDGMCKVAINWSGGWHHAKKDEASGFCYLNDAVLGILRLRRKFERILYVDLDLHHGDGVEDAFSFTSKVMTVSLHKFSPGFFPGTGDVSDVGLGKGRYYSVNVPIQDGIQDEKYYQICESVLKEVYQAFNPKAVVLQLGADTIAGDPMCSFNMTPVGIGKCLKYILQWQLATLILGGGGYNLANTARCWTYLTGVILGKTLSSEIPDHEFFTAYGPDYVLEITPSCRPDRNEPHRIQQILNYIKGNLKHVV

Histone deacetylase 1 [4] = target: T3, Histone deacetylase 1 (Homo sapiens, UniProt Q13547); assay: Inhibition of human recombinant HDAC1 using Ac-RHKK(Acetyl)-AMC peptide as fluorogenic substrate pre-incubated for 30 mins followed by substrate addition and measured for 60 mins by fluorescence based analysis
Histone deacetylase 2 = Histone deacetylase 2 (Homo sapiens, UniProt Q92769); assay: Inhibition of human recombinant HDAC2 using Ac-RHKK(Acetyl)-AMC peptide as fluorogenic substrate pre-incubated for 30 mins followed by substrate addition and measured for 60 mins by fluorescence based analysis
[5] = target: T4, Bromodomain-containing protein 4 (Homo sapiens, UniProt O60885); assay: Inhibition of BRD4 BD1 (unknown origin) incubated for 15 mins by TR-FRET analysis
Histone deacetylase 1 [6] = target: T3, Histone deacetylase 1; assay: Inhibition of HDAC1 (unknown origin) by fluorescence based assay
[7] = target: T4, Bromodomain-containing protein 4; assay: Inhibition of BRD4 BD2 (unknown origin) by TR-FRET assay
[8] = target: T5, Protein cereblon/Histone deacetylase 8 (Homo sapiens, UniProt Q9BY41+Q96SW2); assay: PROTAC activity at HDAC8/CRBN in human HCT-116 cells assessed as degradation of HDAC8 by Western blot analysis; assay type: cell-based
Histone deacetylase 8 [9] = target: T2, Histone deacetylase 8; assay: Inhibition of human recombinant His-tagged HDAC8 expressed in Escherichia coli BL21 (DE3) using ArgHisLysLys(Ac) as substrate pre-incubated for 1 hr and measured after 1 hr by fluorescence based analysis
[10] = target: T1, Protein deacetylase HDAC6; assay: Inhibition of human recombinant HDAC6 using fluorogenic HDAC substrate by fluorescence assay
Histone deacetylase 8 [11] = target: T2, Histone deacetylase 8; assay: Inhibition of human HDAC8 using Boc-Lys (Ac)-AMC as substrate incubated for 60 mins by fluorimetric assay
[12] = Metabolic stability in human Hepatocyte assessed as half life by LC-MS/MS analysis; assay type: ADME, cell-based; conditions: hepatocytes
Histone deacetylase 1 [13] = target: T3, Histone deacetylase 1; assay: Inhibition of HDAC1 (unknown origin)
[14] = target: T6, Vascular endothelial growth factor receptor 2 (Homo sapiens, UniProt P35968); assay: Inhibition of VEGFR2 (unknown origin) expressed in baculovirus infected insect cells using biotinylated-GGGGQDGKDYIVLPI peptide as substrate incubated for 1 to 4 hrs by TR-FRET assay
Histone deacetylase 1 [15] = target: T3, Histone deacetylase 1; assay: Inhibition of HDAC1 (unknown origin) using ZMAL (Z-Lys(Ac)-AMC as fluorogenic substrate pre-incubated for 30 mins measured for 1 hr by fluorescence based analysis
[16] = target: T1, Protein deacetylase HDAC6; assay: Inhibition of HDAC6 (unknown origin) using Ac-peptide as substrate preincubated for 15 mins followed by substrate addition and measured after 1 hr by fluorescence based assay
[17] = target: von Hippel-Lindau disease tumor suppressor/Histone deacetylase 2 (Homo sapiens, UniProt Q92769+P40337); assay: PROTAC activity at VHL/HDAC2 in human ES1 cells assessed as HDAC2 degradation by fluorescence based assay; assay type: cell-based
[18] = target: von Hippel-Lindau disease tumor suppressor/Protein deacetylase HDAC6 (Homo sapiens, UniProt Q9UBN7+P40337); assay: Protac activity at VHL/HDAC6 in human MDA-MB-468 cells assessed as HDAC6 degradation measured after 14 hrs by Western blot analysis; assay type: cell-based
[19] = target: Protein cereblon/Histone deacetylase 3 (Homo sapiens, UniProt O15379+Q96SW2); assay: Protac activity at CRBN/HDAC3 in human MDA-MB-468 cells assessed as HDAC3 degradation measured after 14 hrs by Western blot analysis; assay type: cell-based
Histone deacetylase 1 [20] = target: T3, Histone deacetylase 1; assay: Inhibition of human recombinant HDAC1 using fluorogenic substrate incubated for 30 mins by fluorescence based assay
[21] = target: T1, Protein deacetylase HDAC6; assay: Inhibition of HDAC6 (unknown origin) using biotinylated histone H3 KAc peptide (1 to 21 residues) as substrate by HTRF assay
[22] = target: T6, Vascular endothelial growth factor receptor 2; assay: Inhibition of VEGFR2 (unknown origin) using poly (Glu,Tyr) 4:1 as substrate measured after 1 hr in presence of ATP by spectrophotometric analysis
[23] = target: Vascular endothelial growth factor receptor 1 (Homo sapiens, UniProt P17948); assay: Inhibition of VEGFR1 (unknown origin)
[24] = target: Cyclin-dependent kinase 4 (Homo sapiens, UniProt P11802); assay: Inhibition of CDK4 (unknown origin)
Histone deacetylase 3 [25] = target: T7, Histone deacetylase 3 (Homo sapiens, UniProt O15379); assay: Inhibition of HDAC3 (unknown origin)
[26] = target: T5, Protein cereblon/Histone deacetylase 8; assay: PROTAC activity at HDAC8/CRBN in human HCT-116 cells assessed as degradation of HDAC8 measured after 10 hrs in presence of E3 ligase inhibitor by Western blot analysis; assay type: cell-based
Histone deacetylase 3 [27] = target: T7, Histone deacetylase 3; assay: Inhibition of HDAC3 (unknown origin) using biotinylated histone H3 KAc peptide as substrate pretreated with compound for 1 hrs followed by substrate addition measured after 1 hrs by microplate reader analysis by HTRF assay
Histone deacetylase 3 [28] = target: T7, Histone deacetylase 3; assay: Inhibition of HDAC3 (unknown origin) at 10 uM relative to control
Homo sapiens = species on record: Homo sapiens; assay: Inhibition of Topoisomerase 2 (unknown origin) at 50 to 100 uM incubated for 15 mins in the presence of ATP by electrophoretic analysis; conditions: dose 50-100 µM

T7 sequence (O15379 whole entry): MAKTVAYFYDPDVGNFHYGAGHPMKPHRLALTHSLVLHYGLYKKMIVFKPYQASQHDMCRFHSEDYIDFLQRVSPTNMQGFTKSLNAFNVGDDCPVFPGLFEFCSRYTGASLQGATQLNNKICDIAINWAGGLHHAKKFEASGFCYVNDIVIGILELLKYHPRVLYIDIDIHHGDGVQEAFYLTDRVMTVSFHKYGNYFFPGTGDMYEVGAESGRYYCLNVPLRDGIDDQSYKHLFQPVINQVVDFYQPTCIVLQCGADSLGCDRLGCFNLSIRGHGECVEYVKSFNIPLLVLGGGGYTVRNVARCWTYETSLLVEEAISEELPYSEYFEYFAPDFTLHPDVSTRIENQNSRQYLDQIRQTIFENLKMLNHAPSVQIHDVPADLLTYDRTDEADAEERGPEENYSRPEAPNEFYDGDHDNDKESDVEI
T3 sequence (Q13547 whole entry): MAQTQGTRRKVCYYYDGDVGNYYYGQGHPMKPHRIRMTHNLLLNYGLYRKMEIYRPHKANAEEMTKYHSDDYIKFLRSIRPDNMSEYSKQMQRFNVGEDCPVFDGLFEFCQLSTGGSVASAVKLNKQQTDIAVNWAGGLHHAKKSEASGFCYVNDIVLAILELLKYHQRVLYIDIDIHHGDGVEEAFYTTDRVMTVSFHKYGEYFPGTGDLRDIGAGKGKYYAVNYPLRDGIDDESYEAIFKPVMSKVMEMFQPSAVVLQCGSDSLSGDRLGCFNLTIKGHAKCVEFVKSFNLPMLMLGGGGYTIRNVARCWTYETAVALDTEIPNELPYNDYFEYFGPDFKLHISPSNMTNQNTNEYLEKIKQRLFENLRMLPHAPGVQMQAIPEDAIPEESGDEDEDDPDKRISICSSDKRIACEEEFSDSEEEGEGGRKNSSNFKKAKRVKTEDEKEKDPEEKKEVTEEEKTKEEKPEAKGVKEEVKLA
Chain of von Hippel-Lindau disease tumor suppressor/Histone deacetylase 1 (Q13547 whole entry): as above
Chain of von Hippel-Lindau disease tumor suppressor/Histone deacetylase 1 (P40337 whole entry): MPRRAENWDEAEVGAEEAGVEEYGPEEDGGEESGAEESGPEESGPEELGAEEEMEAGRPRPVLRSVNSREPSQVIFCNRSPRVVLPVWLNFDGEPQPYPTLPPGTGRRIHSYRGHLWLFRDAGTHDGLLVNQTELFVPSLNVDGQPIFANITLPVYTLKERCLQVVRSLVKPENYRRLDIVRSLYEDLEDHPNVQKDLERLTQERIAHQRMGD
T6 sequence (P35968 whole entry): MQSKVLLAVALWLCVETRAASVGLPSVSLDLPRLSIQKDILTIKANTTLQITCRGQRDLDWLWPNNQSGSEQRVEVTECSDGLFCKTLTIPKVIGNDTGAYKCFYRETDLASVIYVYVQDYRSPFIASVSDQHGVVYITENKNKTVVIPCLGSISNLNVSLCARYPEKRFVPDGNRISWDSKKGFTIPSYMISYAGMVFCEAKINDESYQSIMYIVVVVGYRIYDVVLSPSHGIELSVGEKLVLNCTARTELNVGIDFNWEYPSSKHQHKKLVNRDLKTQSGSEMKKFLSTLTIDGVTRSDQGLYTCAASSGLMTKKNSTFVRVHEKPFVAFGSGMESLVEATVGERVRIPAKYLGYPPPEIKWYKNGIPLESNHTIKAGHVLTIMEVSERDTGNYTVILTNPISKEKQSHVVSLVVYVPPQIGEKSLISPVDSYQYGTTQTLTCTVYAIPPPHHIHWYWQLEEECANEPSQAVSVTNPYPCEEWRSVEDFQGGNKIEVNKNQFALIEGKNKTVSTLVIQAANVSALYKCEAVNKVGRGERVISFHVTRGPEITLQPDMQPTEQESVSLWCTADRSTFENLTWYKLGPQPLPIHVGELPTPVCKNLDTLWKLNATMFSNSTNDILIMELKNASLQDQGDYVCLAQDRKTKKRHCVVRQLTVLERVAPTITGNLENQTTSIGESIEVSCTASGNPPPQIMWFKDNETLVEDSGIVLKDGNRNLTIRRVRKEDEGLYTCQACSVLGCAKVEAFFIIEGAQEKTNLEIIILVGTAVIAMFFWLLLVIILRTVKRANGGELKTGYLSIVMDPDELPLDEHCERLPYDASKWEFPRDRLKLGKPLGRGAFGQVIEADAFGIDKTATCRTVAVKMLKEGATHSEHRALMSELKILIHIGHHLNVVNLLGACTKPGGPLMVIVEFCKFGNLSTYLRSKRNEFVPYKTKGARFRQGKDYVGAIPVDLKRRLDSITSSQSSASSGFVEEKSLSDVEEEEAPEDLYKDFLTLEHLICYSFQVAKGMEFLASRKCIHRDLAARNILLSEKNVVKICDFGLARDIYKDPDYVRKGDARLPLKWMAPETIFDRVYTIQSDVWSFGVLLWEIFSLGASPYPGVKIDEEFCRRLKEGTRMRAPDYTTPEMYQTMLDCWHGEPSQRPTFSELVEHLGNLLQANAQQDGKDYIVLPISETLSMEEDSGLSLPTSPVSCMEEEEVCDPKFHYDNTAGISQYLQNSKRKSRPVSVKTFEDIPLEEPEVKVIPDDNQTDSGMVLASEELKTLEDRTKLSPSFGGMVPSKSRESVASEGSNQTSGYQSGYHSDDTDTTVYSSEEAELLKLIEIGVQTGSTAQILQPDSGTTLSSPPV
T5 sequence (Q96SW2 whole entry, one chain of several): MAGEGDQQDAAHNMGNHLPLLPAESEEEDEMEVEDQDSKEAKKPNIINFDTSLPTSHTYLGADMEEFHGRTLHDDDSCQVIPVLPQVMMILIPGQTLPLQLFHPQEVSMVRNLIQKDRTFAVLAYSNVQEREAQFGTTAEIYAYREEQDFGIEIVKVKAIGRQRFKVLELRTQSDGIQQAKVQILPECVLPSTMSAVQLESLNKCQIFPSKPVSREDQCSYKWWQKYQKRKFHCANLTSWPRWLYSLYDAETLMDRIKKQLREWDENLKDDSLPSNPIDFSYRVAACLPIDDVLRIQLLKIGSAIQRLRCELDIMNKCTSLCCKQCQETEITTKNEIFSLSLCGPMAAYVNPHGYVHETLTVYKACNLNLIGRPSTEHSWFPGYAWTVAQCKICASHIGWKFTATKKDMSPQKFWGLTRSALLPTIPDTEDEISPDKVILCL
Chain of von Hippel-Lindau disease tumor suppressor/Histone deacetylase 2 (Q92769 whole entry): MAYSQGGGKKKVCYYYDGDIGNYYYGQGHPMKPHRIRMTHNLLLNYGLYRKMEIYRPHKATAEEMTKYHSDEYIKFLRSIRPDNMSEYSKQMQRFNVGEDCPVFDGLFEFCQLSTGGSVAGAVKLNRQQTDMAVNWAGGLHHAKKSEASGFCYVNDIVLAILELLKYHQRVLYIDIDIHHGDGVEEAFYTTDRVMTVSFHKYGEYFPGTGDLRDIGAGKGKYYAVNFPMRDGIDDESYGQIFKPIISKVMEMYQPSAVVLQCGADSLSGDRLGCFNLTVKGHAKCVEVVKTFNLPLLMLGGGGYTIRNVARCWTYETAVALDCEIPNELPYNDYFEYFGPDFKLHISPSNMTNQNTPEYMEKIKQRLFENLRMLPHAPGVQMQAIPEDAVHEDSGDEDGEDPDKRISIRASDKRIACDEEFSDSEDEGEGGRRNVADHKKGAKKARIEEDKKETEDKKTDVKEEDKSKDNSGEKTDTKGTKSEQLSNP
Chain of von Hippel-Lindau disease tumor suppressor/Histone deacetylase 2 (P40337 whole entry): as the sequence (P40337 whole entry) above
Chain of von Hippel-Lindau disease tumor suppressor/Protein deacetylase HDAC6 (P40337 whole entry, one chain of several): as the sequence (P40337 whole entry) above
Chain of Protein cereblon/Histone deacetylase 3 (O15379 whole entry): as the sequence (O15379 whole entry) above
Chain of Protein cereblon/Histone deacetylase 3 (Q96SW2 whole entry): as the sequence (Q96SW2 whole entry, one chain of several) above
Chain of Cyclin-dependent kinase 4 (P11802 whole entry): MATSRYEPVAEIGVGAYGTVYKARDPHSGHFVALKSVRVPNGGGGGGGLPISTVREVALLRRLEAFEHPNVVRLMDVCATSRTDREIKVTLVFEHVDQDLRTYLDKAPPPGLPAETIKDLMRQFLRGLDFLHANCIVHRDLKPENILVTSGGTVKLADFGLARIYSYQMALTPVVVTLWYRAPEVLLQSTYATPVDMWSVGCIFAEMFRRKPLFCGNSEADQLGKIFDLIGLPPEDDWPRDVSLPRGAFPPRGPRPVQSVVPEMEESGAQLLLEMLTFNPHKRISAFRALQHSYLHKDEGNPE
Chain of Histone deacetylase 2 (Q92769 whole entry): as the sequence (Q92769 whole entry) above

O=C(CS)Nc1ccc(Cn2c3c(c4ccccc42)CS(=O)(=O)CC3)cc1
IC50 [1]: 130 nM

Cc1ncsc1-c1ccc(CNC(=O)[C@@H]2C[C@@H](O)CN2C(=O)[C@@H](NC(=O)CCCCCCCCCCC(=O)Nc2ccc(C(=O)Nc3ccccc3N)cc2)C(C)(C)C)cc1
DC50 [2]: 17000 nM

COc1ccc(-c2ccc3c(NC(=O)CCCCCCC(=O)NO)n[nH]c3c2)cc1
IC50 (Histone deacetylase 8 [3]): 4 nM
IC50 (Histone deacetylase 1 [4]): 2 nM
IC50 (Histone deacetylase 2): 4 nM

Cc1sc2c(c1C)C(c1ccc(Cl)cc1)=N[C@@H](CC(=O)Nc1ccc(C(=O)Nc3ccccc3[N+](=O)[O-])cc1)c1nnc(C)n1-2
IC50 [5]: 720 nM
IC50 (Histone deacetylase 1 [6]): 290 nM
IC50 [7]: 74 nM

O=C1CCC(N2C(=O)c3cccc(NCCCCCCCCCCCNC(=O)Nc4cccc(SCc5cn(-c6cccc(C(=O)NO)c6)nn5)c4)c3C2=O)C(=O)N1 (configuration not stated)
DC50 [8]: 53 nM

O=C(CCCN1CCN(C(=O)Nc2ccnc3ccccc23)CC1)NO
IC50 (Histone deacetylase 8 [9]): 2000 nM

O=C(COc1ccc2c(c1)OC1(CCN(Cc3cc(F)cc(F)c3)CC1)CC2=O)NO
IC50 [10]: 80 nM
IC50 (Histone deacetylase 8 [11]): 9000 nM

CCCNNC(=O)c1ccc(Nc2nccc(N(C)c3ccc4c(C)n(C)nc4c3)n2)cc1
half-life [12]: < 15 min
IC50 (Histone deacetylase 1 [13]): 420 nM
IC50 [14]: 25 nM

O=C(Cc1ccc(C(=O)NO)cc1)Nc1ccc2ncnc(Nc3ccc(Br)c(F)c3)c2c1
IC50 [10]: 15 nM
IC50 (Histone deacetylase 1 [15]): 742 nM

CCCNNC(=O)/C=C/c1ccc(CNCCc2c(C)[nH]c3ccccc23)cc1
IC50 [16]: > 50 nM

CCCNNC(=O)c1ccc(-c2ccc(NC(=O)CCCCCCC(=O)N[C@H](C(=O)N3C[C@H](O)C[C@H]3C(=O)N[C@@H](C)c3ccc(-c4scnc4C)cc3)C(C)(C)C)cc2)cc1
DC50 [2]: 650 nM
DC50 [17]: 2000 nM

O=C(CCCCCCNC(=O)c1ccc(NC(=O)COCCOCCNC(=O)COc2cccc3c2C(=O)N(C2CCC(=O)NC2=O)C3=O)cc1)NO (configuration not stated)
DC50 [18]: 27 nM
DC50 [2]: 174 nM
DC50 [19]: 139 nM
DC50 [17]: 248 nM

CN(c1ccccc1)c1ncc(NC(=O)CS)cn1
IC50 [10]: 73 nM
IC50 (Histone deacetylase 1 [15]): 2000 nM

Cc1c2ccc(N(C)c3ccnc(Nc4ccc(NC(=O)CCCCCCC(=O)NO)cc4)n3)cc2nn1C
IC50 (Histone deacetylase 1 [20]): 120 nM
IC50 [21]: 94 nM
IC50 [22]: 16 nM
IC50 [23]: 18 nM
half-life [12]: < 15 min

Cc1ncsc1-c1ccc([C@H](C)NC(=O)[C@@H]2C[C@@H](O)CN2C(=O)[C@@H](NC(=O)COCCOCCOCC(=O)NCc2cccc(CNc3ncc(-c4nnc(C(F)F)o4)cn3)c2)C(C)(C)C)cc1
DC50 [18]: 686 nM

O=C(CCCCCCN1CCN(c2ccc(Nc3ncc(F)c(-c4cn(C5CCCC5)nn4)n3)cc2)CC1)NO
IC50 [24]: 23 nM

Nc1ccccc1NC(=O)Cc1ccc2ncccc2c1
IC50 (Histone deacetylase 3 [25]): 560 nM

COc1ccc(C(=O)NO)cc1NCc1ccc(OCc2cn(CCCCCNc3cccc4c3C(=O)N(C3CCC(=O)NC3=O)C4=O)nn2)cc1 (configuration not stated)
DC50 [26]: 250 nM

Cc1ccccc1/C=C/C(=O)Nc1ccc(C(=O)NS(=O)(=O)c2ccc(NCCCCCCC(=O)NO)c([N+](=O)[O-])c2)c(Oc2ccccc2)c1
IC50 [10]: 3 nM
IC50 (Histone deacetylase 1 [15]): 102 nM

O=C(Cc1ccc2ncccc2c1)Nc1ccccc1O
IC50 (Histone deacetylase 3 [27]): 2000 nM

O=C(/C=C/c1ccc(CSc2nc3[nH]ncc3c(=O)n2-c2ccccc2)cc1)NO
inhibition (Histone deacetylase 3 [28]): 88%
inhibition (Homo sapiens): 82.1%

O=C(COc1ccc2c(c1)OC1(CCN(Cc3cc(Cl)cc(Cl)c3)CC1)CC2=O)NO
IC50 [10]: 80 nM
IC50 (Histone deacetylase 8 [11]): 8000 nM
